Test in all cases: cell-based
Holding throughout (design): species or system HEK293A; AP-TGFα shedding assay, transfected GPCR plus chimeric Gα mixture, AP release as % of TPA response
Conditions in all cases: HEK293-A

For experiment [1], the target named is T1, relaxin/insulin-like family peptide receptor 3 (Homo sapiens, UniProt Q9NSD7).
T1 construct: gene RXFP3
T1 sequence (Q9NSD7 1-469): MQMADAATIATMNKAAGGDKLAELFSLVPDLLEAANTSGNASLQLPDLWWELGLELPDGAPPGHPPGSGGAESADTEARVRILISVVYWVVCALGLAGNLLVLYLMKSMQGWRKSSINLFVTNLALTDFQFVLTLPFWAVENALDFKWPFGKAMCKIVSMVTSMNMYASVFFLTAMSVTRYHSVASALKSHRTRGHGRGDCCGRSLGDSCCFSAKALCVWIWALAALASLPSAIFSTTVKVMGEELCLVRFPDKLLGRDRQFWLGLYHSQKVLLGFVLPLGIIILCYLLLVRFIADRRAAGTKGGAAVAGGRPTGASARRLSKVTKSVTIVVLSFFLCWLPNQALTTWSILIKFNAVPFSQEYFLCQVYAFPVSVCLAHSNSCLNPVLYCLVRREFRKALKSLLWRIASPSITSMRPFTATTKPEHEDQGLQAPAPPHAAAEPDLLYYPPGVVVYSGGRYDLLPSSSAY

Experiment [2] concerns the target T2, relaxin/insulin-like family peptide receptor 2 (Homo sapiens, UniProt Q8WXD0).
T2 construct: gene RXFP2

Experiment [3] addresses T3, hypocretin (orexin) receptor 2 (Homo sapiens, UniProt O43614).
T3 construct: gene HCRTR2
T3 sequence (O43614 1-444): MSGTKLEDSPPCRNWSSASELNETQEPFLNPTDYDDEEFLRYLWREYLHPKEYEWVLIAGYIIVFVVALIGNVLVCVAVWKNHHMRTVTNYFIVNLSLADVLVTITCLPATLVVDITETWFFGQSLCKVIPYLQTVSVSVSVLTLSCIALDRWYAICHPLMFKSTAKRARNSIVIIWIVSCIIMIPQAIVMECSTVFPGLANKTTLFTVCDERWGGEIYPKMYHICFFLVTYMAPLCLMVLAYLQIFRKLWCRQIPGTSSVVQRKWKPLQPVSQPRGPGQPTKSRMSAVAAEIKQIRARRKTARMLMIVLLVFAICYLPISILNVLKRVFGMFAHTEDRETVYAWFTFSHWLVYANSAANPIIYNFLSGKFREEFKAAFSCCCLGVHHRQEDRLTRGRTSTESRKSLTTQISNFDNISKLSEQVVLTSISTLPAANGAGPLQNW

The target in experiment [4] is T4, purinergic receptor P2Y, G-protein coupled, 1 (Homo sapiens, UniProt P47900).
T4 construct: gene P2RY1
T4 sequence (P47900 whole entry): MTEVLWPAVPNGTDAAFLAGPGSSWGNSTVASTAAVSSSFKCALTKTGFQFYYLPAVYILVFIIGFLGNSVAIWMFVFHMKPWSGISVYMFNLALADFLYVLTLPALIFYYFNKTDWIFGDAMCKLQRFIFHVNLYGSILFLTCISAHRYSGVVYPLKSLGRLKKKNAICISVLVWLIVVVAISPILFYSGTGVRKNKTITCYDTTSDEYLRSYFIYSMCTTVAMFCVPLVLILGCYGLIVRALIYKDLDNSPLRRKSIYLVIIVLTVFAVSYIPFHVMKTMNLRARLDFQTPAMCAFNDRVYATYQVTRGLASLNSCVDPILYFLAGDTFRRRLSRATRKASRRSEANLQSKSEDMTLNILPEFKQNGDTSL

In experiment [5] the target is T5, prostaglandin E receptor 3 iso6 (Homo sapiens, UniProt P43115).
T5 construct: gene PTGER3; iso6
T5 sequence (P43115 1-390): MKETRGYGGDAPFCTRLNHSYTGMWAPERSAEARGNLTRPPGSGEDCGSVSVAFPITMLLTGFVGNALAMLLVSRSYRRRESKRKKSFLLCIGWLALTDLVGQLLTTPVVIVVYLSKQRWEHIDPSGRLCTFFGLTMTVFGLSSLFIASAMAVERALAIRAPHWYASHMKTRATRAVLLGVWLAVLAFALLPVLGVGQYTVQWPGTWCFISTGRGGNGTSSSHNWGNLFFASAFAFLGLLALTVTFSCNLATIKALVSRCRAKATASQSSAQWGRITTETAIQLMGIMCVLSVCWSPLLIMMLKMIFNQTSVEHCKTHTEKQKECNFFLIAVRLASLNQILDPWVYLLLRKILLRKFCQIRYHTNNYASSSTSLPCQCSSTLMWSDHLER

For experiment [6], the target named is T6, 5-hydroxytryptamine receptor 1F (Homo sapiens, UniProt P30939).
T6 construct: gene HTR1F
T6 sequence (P30939 1-366): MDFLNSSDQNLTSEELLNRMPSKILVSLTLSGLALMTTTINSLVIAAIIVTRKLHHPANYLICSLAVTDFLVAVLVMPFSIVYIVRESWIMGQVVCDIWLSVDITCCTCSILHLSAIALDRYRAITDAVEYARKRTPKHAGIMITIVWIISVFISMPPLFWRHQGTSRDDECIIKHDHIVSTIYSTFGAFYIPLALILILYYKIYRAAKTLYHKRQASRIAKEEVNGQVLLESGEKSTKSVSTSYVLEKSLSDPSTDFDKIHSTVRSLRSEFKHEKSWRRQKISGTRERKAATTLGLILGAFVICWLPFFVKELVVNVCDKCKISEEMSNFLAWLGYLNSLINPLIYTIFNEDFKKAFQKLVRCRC

Experiment [7] concerns the target T7, purinergic receptor P2Y, G-protein coupled, 13 short (Homo sapiens, UniProt Q9BPV8).
T7 construct: gene P2RY13; short
T7 sequence (Q9BPV8 1-354): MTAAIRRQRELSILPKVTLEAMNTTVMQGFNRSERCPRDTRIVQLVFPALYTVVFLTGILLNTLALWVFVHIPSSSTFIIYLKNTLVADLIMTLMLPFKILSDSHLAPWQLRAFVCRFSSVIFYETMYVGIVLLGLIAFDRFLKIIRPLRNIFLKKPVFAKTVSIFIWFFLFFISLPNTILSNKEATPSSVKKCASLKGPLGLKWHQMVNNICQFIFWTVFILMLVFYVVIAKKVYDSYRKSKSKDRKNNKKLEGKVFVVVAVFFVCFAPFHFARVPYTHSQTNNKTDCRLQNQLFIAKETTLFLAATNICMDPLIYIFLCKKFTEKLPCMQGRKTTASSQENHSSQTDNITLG

[8] abbreviates: read-out: % GPCR activation of 100μM Favipiravir compared to TPA.
The mark [9] stands for this setting: read-out: % GPCR activation of 10μM Sofosbuvir compared to TPA.
Setting [10] is: read-out: % GPCR activation of 10µM Remdesivir compared to TPA.
[11] abbreviates: read-out: % GPCR activation of 10μM GS441524 compared to TPA.
[12] abbreviates: read-out: % GPCR activation of 10µM Molnupiravir compared to TPA.

Where two headings read alike, the source gives them in different places.

T2 sequence (Q8WXD0 whole entry): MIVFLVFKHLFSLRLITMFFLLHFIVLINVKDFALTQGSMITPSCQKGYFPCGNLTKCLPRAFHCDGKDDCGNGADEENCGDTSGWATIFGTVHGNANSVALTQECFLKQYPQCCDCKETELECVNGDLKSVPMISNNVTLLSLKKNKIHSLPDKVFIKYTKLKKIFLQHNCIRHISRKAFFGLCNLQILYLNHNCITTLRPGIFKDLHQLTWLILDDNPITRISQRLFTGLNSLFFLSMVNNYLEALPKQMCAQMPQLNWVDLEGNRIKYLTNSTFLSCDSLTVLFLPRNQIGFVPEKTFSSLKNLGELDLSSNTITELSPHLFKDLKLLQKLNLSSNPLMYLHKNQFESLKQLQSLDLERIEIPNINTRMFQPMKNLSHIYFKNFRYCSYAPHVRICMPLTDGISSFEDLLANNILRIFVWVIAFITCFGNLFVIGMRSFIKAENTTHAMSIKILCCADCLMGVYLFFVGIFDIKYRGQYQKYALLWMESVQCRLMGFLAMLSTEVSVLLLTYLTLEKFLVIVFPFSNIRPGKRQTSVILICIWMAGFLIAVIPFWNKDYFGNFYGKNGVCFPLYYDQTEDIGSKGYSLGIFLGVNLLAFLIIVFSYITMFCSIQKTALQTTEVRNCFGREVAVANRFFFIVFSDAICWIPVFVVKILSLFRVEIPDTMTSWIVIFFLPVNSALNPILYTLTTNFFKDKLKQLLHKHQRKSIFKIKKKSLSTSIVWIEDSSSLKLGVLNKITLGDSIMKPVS

As to `NC(=O)c1nc(F)cnc1O` [favipiravir, 6-fluoro-3-hydroxy-2-pyrazinecarboxamide], the activity at 100 µM is 1.4% in experiment [1] (setting [8]); -0.673% in experiment [2] (setting [8]); 0.725% in experiment [3] (setting [8]); 0.43% in experiment [4] (setting [8]); 0.28% in experiment [5] (setting [8]); 1.63% in experiment [6] (setting [8]). For the same molecule, in experiment [7] (setting [8]), the activity at 100 µM came to 1.7%.
Turning to `CC(C)OC(=O)[C@H](C)N[P@](=O)(OC[C@H]1O[C@@H](n2ccc(=O)[nH]c2=O)[C@](C)(F)[C@@H]1O)Oc1ccccc1` [sofosbuvir], the activity at 10 µM in experiment [1] (setting [9]) was -2.19%; in experiment [2] (setting [9]) it was -1.51%; in experiment [3] (setting [9]), -1.97%; in experiment [4] (setting [9]), -4.63%; in experiment [5] (setting [9]), -2.67%; in experiment [6] (setting [9]), -0.816%. Further, the activity at 10 µM in experiment [7] (setting [9]) is -2.68%.
In the case of `CCC(CC)COC(=O)[C@H](C)N[P@](=O)(OC[C@H]1O[C@@](C#N)(c2ccc3c(N)ncnn23)[C@H](O)[C@@H]1O)Oc1ccccc1` [remdesivir], the activity at 10 µM is 3.55% in experiment [1] (setting [10]); 0.369% in experiment [2] (setting [10]); 0.000265% in experiment [3] (setting [10]); 11% in experiment [4] (setting [10]); 1.47% in experiment [5] (setting [10]); -2.15% in experiment [6] (setting [10]). In addition, the activity at 10 µM in experiment [7] (setting [10]) came to 2.55%.
`N#C[C@@]1(c2ccc3c(N)ncnn23)O[C@H](CO)[C@@H](O)[C@H]1O` [GS441524]: the activity at 10 µM in experiment [1] (setting [11]) is 1.98%; in experiment [2] (setting [11]), -1.3%; in experiment [3] (setting [11]) it was 2.17%; in experiment [4] (setting [11]), -0.459%; in experiment [5] (setting [11]), -0.459%; in experiment [6] (setting [11]) it was 0.356%. For the same molecule, the activity at 10 µM in experiment [7] (setting [11]) was found to be 0.947%.
Take `CC(C)C(=O)OC[C@H]1O[C@@H](n2ccc(NO)nc2=O)[C@H](O)[C@@H]1O` [molnupiravir]: the activity at 10 µM is -2.92% in experiment [1] (setting [12]); -1.68% in experiment [2] (setting [12]); 0.477% in experiment [3] (setting [12]); -11.8% in experiment [4] (setting [12]); -0.792% in experiment [5] (setting [12]); 0.719% in experiment [6] (setting [12]). In addition, in experiment [7] (setting [12]), the activity at 10 µM was -3.48%.
